Molecular target: 15-PGDH/HPGD (Homo sapiens (Human), UniProt P15428)
Assay: hPGDH inhibitor screening biochemical assay
Conditions: 10 nM 15-PGDH/HPGD, 15 μM PGE2, 0.25 mM NAD; read-out: hPGDH: Average IC50
Experimental: A hydroxyprostaglandin dehydrogenase inhibition screening biochemical assay can be performed to assess the synthesized inhibitors provided herein. Provided herein is an exemplary biochemical assay for hPGDH inhibitor screening.
The in vitro biochemical assay can be performed in white, 384 plates in total 20 μl reaction volume consisting of 10 nM of 15-PGDH/HPGD (R&D System #5660-DH), 15 μM Prostaglandin E2 (Sigma, Cat #P5640-10MG) and 0.25 mM β-Nicotinamide adenine dinucleotide sodium salt (Sigma, Cat #N0632-5G) made in reaction buffer (50 mM Tris-HCl, pH 7.5, 0.01% Tween 20) at 10-point dose response curve for test/tool compounds. Briefly, 5 μl (4×) of compounds solution and 5 μl (final concentration, 10 nM) of enzyme solution is added to white 384 well plates and incubated for 10 mins at 37° C. 5 μl (4×) of Prostaglandin E2 and 5 μl (4×) of β-Nicotinamide adenine dinucleotide sodium salt is added to the wells and incubated for 10 mins at rt. Fluorescence is recorded at ex/em=340 nm/485 nm. The percentage (%) inhibition of enzyme activity was determined relative to […] (1% DMSO) and IC50 was calculated using GraphPad prism software (four parameter-variable slope equation).

Sequence of 15-PGDH/HPGD (P15428 whole entry): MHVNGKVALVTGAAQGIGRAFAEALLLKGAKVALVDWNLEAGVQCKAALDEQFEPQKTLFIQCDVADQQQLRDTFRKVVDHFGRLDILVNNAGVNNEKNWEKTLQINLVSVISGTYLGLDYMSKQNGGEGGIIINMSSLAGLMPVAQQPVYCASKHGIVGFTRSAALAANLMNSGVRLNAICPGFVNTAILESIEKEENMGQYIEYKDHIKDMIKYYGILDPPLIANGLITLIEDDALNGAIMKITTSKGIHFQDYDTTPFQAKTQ

IC50 [µM] | SMILES
< 0.1 | Cc1c(C(=O)N2CCC(F)CC2)cnc2c1ccn2-c1cnccn1 [A-97, (4-fluoropiperidin-1-yl)(4-methyl-1-(pyrazin-2-yl)-1H-pyrrolo[2,3-b]pyridin-5-yl)methanone]
≥ 1 | CS(=O)(=O)n1ccc2cc(C(=O)N3CCCCC3)cnc21 [A-110, (1-(methylsulfonyl)-1H-pyrrolo[2,3-b]pyridin-5-yl)(piperidin-1-yl)methanone]
≥ 1 | Cc1ccc(S(=O)(=O)n2ccc3cc(C(=O)N4CCCCC4)cnc32)cc1 [A-111, piperidin-1-yl(1-tosyl-1H-pyrrolo[2,3-b]pyridin-5-yl)methanone]
< 0.1 | O=C(c1cnc2c(ccn2-c2ccn3ccnc3c2)c1)N1CCCCC1 [A-112]
< 0.1 | Cc1cncc(-n2ccc3cc(C(=O)N4CCCCC4)cnc32)c1 [A-113]
< 0.1 | N#Cc1ccc(-n2ccc3cc(C(=O)N4CCC(F)CC4)cnc32)cc1 [A-114]
< 0.1 | N#Cc1cccc(-n2ccc3cc(C(=O)N4CCC(F)CC4)cnc32)c1 [A-115]
< 0.1 | CN(C)c1ccc(-n2ccc3cc(C(=O)N4CCCCC4)cnc32)cn1 [A-116]
< 0.1 | N#Cc1ccc(-n2ccc3cc(C(=O)N4CCCCC4)cnc32)cn1 [A-117]
< 0.1 | N#Cc1ncc(-n2ccc3cc(C(=O)N4CCCCC4)cnc32)cn1 [A-118]
< 0.1 | O=C(c1cnc2c(ccn2-c2ccc3[nH]ncc3c2)c1)N1CCCCC1 [A-119, (1-(1H-indazol-5-yl)-1H-pyrrolo[2,3-b]pyridin-5-yl)(piperidin-1-yl)methanone]
< 0.1 | COc1ccc(Cn2ncc3cc(-n4ccc5cc(C(=O)N6CCCCC6)cnc54)ccc32)cc1 [A-120]
< 0.1 | COc1ccc(Cn2cc3cc(-n4ccc5cc(C(=O)N6CCCCC6)cnc54)ccc3n2)cc1 [A-121]
< 0.1 | NC(=O)c1ccc(-n2ccc3cc(C(=O)N4CCC(F)CC4)cnc32)cc1 [A-122]
< 0.1 | NC(=O)c1cccc(-n2ccc3cc(C(=O)N4CCC(F)CC4)cnc32)c1 [A-123]
< 0.1 | NC(=O)c1ccc(-n2ccc3cc(C(=O)N4CCCCC4)cnc32)cn1 [A-124]
< 0.1 | NC(=O)c1ncc(-n2ccc3cc(C(=O)N4CCCCC4)cnc32)cn1 [A-125]
< 0.1 | NC(=O)c1ccc(-n2ccc3cc(C(=O)N4CCC(F)(F)CC4)cnc32)cc1 [A-126]
< 0.1 | O=C(c1cnc2c(ccn2-c2ccc(CO)cc2)c1)N1CCC(F)CC1 [A-127]
< 0.1 | O=C(c1cnc2c(ccn2-c2cccc(CO)c2)c1)N1CCC(F)CC1 [A-128]
< 0.1 | CC(C)(O)c1ccc(-n2ccc3cc(C(=O)N4CCCCC4)cnc32)cc1 [A-130]
≥ 1 | COc1ccc(-n2ccc3cc(C(=O)N4CCC(c5ccccc5)CC4)cnc32)cc1 [A-134]
≥ 1 | COc1ccc(-n2ccc3cc(C(=O)N4CC(c5ccccc5)C4)cnc32)cc1 [A-135]
≥ 1 | COc1ccc(-n2ccc3cc(C(=O)N4CCN(CC(F)(F)F)CC4)cnc32)cc1 [A-136]
< 0.1 | COc1ccc(-n2ccc3cc(C(=O)N4C[C@H](C)C[C@H](C)C4)cnc32)cc1 [A-138, ((3R,5S)-3,5-dimethylpiperidin-1-yl)(1-(4-methoxyphenyl)-1H-pyrrolo[2,3-b]pyridin-5-yl)methanone]

IC50 [µM] | SMILES
< 0.1 | COCCNC(=O)c1ccc(-n2ccc3cc(C(=O)N4CCCCC4)cnc32)cc1 [A-139]
< 0.1 | CNC(=O)c1ccc(-n2ccc3cc(C(=O)N4CCCCC4)cnc32)cc1 [A-140]
< 0.1 | COc1ccc(-n2ccc3cc(C(=O)N4CCC(F)CC4)cnc32)cc1 [A-142]
< 0.1 | COc1cccc(-n2ccc3cc(C(=O)N4CCCCC4)cnc32)c1 [A-143]
< 0.1 | O=C(c1cnc2c(ccn2-c2cncc(Cl)c2)c1)N1CCCCC1 [A-144]
< 0.1 | COc1cncc(-n2ccc3cc(C(=O)N4CCCCC4)cnc32)c1 [A-145]
< 0.1 | COc1ccc(-n2ccc3cc(C(=O)N4CCCCC4)cnc32)cc1 [A-146]
< 0.1 | N#Cc1ccc(-n2ccc3cc(C(=O)N4CCCCC4)cnc32)cc1 [A-147]
< 0.1 | N#Cc1cccc(-n2ccc3cc(C(=O)N4CCCCC4)cnc32)c1 [A-148]
< 0.1 | CN(C)c1cccc(-n2ccc3cc(C(=O)N4CCCCC4)cnc32)c1 [A-149]
< 0.1 | CN(C)c1ccc(-n2ccc3cc(C(=O)N4CCCCC4)cnc32)cc1 [A-150]
< 0.1 | CCOc1ccc(-n2ccc3cc(C(=O)N4CCCCC4)cnc32)cc1 [A-151]
< 0.1 | CS(=O)(=O)c1cccc(-n2ccc3cc(C(=O)N4CCCCC4)cnc32)c1 [A-152]
< 0.1 | CS(=O)(=O)c1ccc(-n2ccc3cc(C(=O)N4CCCCC4)cnc32)cc1 [A-153]
< 0.1 | Nc1cc(-n2ccc3cc(C(=O)N4CCCCC4)cnc32)ccn1 [A-154]
< 0.1 | O=C(c1cnc2c(ccn2-c2ccc(O)nc2)c1)N1CCCCC1 [A-155]
< 0.1 | Nc1cncc(-n2ccc3cc(C(=O)N4CCCCC4)cnc32)c1 [A-156]
< 0.1 | COc1ccc(-n2ccc3cc(C(=O)N4CCCCC4)cnc32)cn1 [A-157]
< 0.1 | Nc1ccc(-n2ccc3cc(C(=O)N4CCCCC4)cnc32)cn1 [A-158]
< 0.1 | NC(=O)c1ccc(-n2ccc3cc(C(=O)N4CCCCC4)cnc32)cc1 [A-159]
< 0.1 | NC(=O)c1cccc(-n2ccc3cc(C(=O)N4CCCCC4)cnc32)c1 [A-160]
< 0.1 | NCc1ccc(-n2ccc3cc(C(=O)N4CCCCC4)cnc32)cc1 [A-162]
< 0.1 | O=C(c1cnc2c(ccn2-c2ccc(CO)cc2)c1)N1CCCCC1 [A-163]
< 0.1 | O=C(c1cnc2c(ccn2-c2cccc(CO)c2)c1)N1CCCCC1 [A-164]
< 0.1 | COc1ccc(-n2cc(Cl)c3cc(C(=O)N4CCC(F)CC4)cnc32)cc1 [A-165, (3-chloro-1-(4-methoxyphenyl)-1H-pyrrolo[2,3-b]pyridin-5-yl)(4-fluoropiperidin-1-yl)methanone]

IC50 [µM] | SMILES
< 0.1 | COc1ccc(-n2cc(Cl)c3cc(C(=O)N4CCCCC4)cnc32)cc1 [A-166]
< 0.1 | O=C(c1cnc2c(c1)c(Cl)cn2-c1ccc2c(c1)OC(F)(F)O2)N1CCC(F)CC1 [A-167]
< 0.1 | O=C(c1cnc2c(c1)c(Cl)cn2-c1ccc2c(c1)OC(F)(F)O2)N1CCCCC1 [A-168]
< 0.1 | COc1cccc(-n2cc(Cl)c3cc(C(=O)N4CCCCC4)cnc32)c1 [A-169]
< 0.1 | O=C(c1cnc2c(c1)c(Cl)cn2-c1cncc(Cl)c1)N1CCCCC1 [A-170]
< 0.1 | COc1cncc(-n2cc(Cl)c3cc(C(=O)N4CCCCC4)cnc32)c1 [A-171]
< 0.1 | O=C(c1cnc2c(ccn2-c2cnccn2)c1Cl)N1CCC(F)CC1 [A-172]
< 0.1 | O=C(c1cnc2c(c(Cl)cn2-c2cnccn2)c1Cl)N1CCC(F)CC1 [A-173]
≥ 1 | Cc1nc2c(ccn2-c2cnccn2)cc1C(=O)N1CCC(F)CC1 [A-174]
≥ 1 | Cc1nc2c(cc1C(=O)N1CCC(F)CC1)c(Cl)cn2-c1cnccn1 [A-175]
≥ 1 | CCC(CC)n1cnc2cc(C(=O)N3CCC(F)CC3)cnc21 [A-176]
< 0.1 | O=C(c1cnc2c(c1)ncn2-c1ccc(F)cc1)N1CCCCC1 [A-178]
< 0.1 | O=C(c1cnc2c(c1)ncn2-c1ccc(F)c(F)c1)N1CCCCC1 [A-180]
< 0.1 | O=C(c1cnc2c(c1)ncn2-c1ccc(OC(F)(F)F)cc1)N1CCCCC1 [A-182]
< 0.1 | CCOc1ccc(-n2cnc3cc(C(=O)N4CCCCC4)cnc32)cc1 [A-186]
< 0.1 | N#Cc1ccc(-n2cnc3cc(C(=O)N4CCC(F)(F)CC4)cnc32)cc1 [A-193]
< 0.1 | N#Cc1ccc(-n2cnc3cc(C(=O)N4CC(Cl)C4)cnc32)cc1 [A-194]
< 0.1 | NC(=O)c1ccc(-n2cnc3cc(C(=O)N4CCC(F)(F)CC4)cnc32)cc1 [A-195]
< 0.1 | COc1ccc(-n2c(C)nc3cc(C(=O)N4CCCCC4)cnc32)cc1 [A-197]
≥ 1 | COc1ccc(-n2c(CCNC(C)=O)nc3cc(C(=O)N4CCC(F)CC4)cnc32)cc1 [A-198]
< 0.1 | Cc1c(C(=O)N2CCC(F)CC2)cnc2c1ccn2-c1ccc(C(N)=O)cc1 [A-202, 4-(5-(4-fluoropiperidine-1-carbonyl)-4-methyl-1H-pyrrolo[2,3-b]pyridin-1-yl)benzamide]
< 0.1 | NC(=O)c1ccc(-n2cc(Cl)c3cc(C(=O)N4CCC(F)CC4)cnc32)cc1 [A-203, 4-(3-chloro-5-(4-fluoropiperidine-1-carbonyl)-1H-pyrrolo[2,3-b]pyridin-1-yl)benzamide]
< 0.1 | NC(=O)c1ccc(-n2cc(Cl)c3cc(C(=O)N4CCCCC4)cnc32)cc1 [A-204, 4-(3-chloro-5-(piperidine-1-carbonyl)-1H-pyrrolo[2,3-b]pyridin-1-yl)benzamide]
< 0.1 | Cc1c(C(=O)N2CCC(F)CC2)cnc2c1ccn2-c1ccc(C#N)cc1 [A-206, 4-(5-(4-fluoropiperidine-1-carbonyl)-4-methyl-1H-pyrrolo[2,3-b]pyridin-1-yl)benzonitrile]
< 0.1 | N#Cc1ccc(-n2cc(Cl)c3cc(C(=O)N4CCC(F)CC4)cnc32)cc1 [A-207]

SMILES | IC50 [µM]
CN(C)C(=O)c1ccc(-n2ccc3cc(C(=O)N4CCCCC4)cnc32)cc1 [A-141] | < 0.1
